Literature values in US20260108515A1, “A RAPIDLY DISINTEGRATING TABLET OF ROSUVASTATIN AND ITS PROCESS OF PREPARATION” (NOVUMGEN LIMITED, priority 2022, published 2026).

What was measured:
[1] = in vivo
[2] = test system: high-density lipoprotein—Cholesterol; details: patients with raised triglyceride levels
[3] = high permeability and low solubility
CYP3A4 = CYP3A4 (Homo sapiens, UniProt P08684)
Chain of CYP3A4 (P08684 whole entry): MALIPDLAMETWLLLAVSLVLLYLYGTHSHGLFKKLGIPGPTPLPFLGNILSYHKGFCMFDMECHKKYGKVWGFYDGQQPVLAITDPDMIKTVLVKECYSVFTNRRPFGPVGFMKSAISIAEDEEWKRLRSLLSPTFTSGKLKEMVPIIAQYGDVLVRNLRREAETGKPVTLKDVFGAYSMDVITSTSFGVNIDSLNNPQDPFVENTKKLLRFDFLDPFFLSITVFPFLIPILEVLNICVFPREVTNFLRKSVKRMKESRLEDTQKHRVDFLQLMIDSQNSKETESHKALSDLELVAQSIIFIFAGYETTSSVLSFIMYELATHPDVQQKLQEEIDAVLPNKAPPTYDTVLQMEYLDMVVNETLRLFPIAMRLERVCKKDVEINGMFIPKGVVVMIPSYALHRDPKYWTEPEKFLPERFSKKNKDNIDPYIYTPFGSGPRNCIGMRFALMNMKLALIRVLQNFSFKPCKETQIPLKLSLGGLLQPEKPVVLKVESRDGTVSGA

plasma half-life [1]: 18 to 24 h
biopharmaceutics classification system (BCS) class [3]: class II
metabolizing isoenzyme (CYP3A4): metabolized primarily by CYP3A4
Structure (SMILES): CC(C)c1nc(N(C)S(C)(=O)=O)nc(-c2ccc(F)cc2)c1/C=C/[C@@H](O)C[C@@H](O)CC(=O)O [Rosuvastatin, (E,3R,5S)-7-[4-(4-fluorophenyl)-2-[methyl(methylsulfonyl)amino]-6-propan-2-ylpyrimidin-5-yl]-3,5-dihydroxyhept-6-enoic acid]
raises high-density lipoprotein—Cholesterol [2]: 15-20%
